Measured values as given in patent publication US8344027B2, “4-dimethylaminobutyric acid derivatives” (Hoffmann-La Roche Inc., priority 2008, dated 2013).

Legend:
hL-CPT1 = molecular target: T1, hL-CPT1 (Homo sapiens, UniProt P50416); assay: liver CPT1 inhibition, spectrophotometric DTNB (Ellman's reagent) assay; type: biochemical; settings: human liver CPT1 expressed in P. pastoris, cell extract; carnitine 500 μM, palmitoyl-CoA 80 μM, DTNB 300 μM
T1 construct: made in house; host or cells: Pichia pastoris strain X-33
T1 sequence (P50416 1-773): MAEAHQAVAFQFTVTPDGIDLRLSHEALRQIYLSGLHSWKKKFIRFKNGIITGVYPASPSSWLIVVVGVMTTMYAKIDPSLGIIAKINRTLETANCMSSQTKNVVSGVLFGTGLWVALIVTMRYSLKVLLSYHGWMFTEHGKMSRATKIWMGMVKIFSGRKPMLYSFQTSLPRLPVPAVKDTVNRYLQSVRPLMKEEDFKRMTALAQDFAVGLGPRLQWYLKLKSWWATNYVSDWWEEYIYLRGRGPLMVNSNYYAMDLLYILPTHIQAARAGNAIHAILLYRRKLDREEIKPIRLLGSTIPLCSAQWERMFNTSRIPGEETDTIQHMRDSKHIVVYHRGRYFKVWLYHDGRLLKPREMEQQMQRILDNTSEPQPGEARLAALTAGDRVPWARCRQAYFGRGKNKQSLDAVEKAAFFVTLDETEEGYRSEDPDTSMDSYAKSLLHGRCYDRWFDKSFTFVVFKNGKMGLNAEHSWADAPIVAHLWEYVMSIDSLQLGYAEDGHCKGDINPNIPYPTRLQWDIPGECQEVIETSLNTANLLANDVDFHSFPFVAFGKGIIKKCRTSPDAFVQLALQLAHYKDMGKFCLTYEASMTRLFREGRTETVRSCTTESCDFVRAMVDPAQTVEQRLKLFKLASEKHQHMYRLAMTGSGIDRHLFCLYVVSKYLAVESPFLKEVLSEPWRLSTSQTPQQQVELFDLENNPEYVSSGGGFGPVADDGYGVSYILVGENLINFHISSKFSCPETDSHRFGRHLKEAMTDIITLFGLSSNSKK
Method: (§1) The following tests were carried out in order to determine the activity of the compounds of the present invention. Background information on the performed assays can be found in: Jackson et al., 1999, Biochem. J. 341, 483-489 and Jackson et al., 2000, J. Biol. Chem. 275, 19560-19566.
(§2) Human and rat CPT2- and liver CPT1 cDNAs, and human muscle CPT1 cDNA were subcloned in pGAPZB or pGAPZA, respectively. These plasmids were used to transform P. pastoris strain X-33 via electroporation after the preparation of electrocompetent cells. High copy number clones were selected where necessary using 0.5 or 1 mg/ml Zeocin. Cultures for activity measurements were induced for 16 h in YPD medium (1% yeast extract, 2% peptone, 2% glucose). Crude cell extracts were prepared by disrupting the cells with glass beads or French Press, depending on fermenter sizes. After centrifugation, the cell-free extracts were resuspended in cell breaking buffer (50 mM Tris, pH7.4, 100 mM KCl, 1 mM EDTA) in the presence of a protease inhibitor cocktail, before aliquoting and freezing at −20° C.
(§3) CPT activity was measured using a spectrophotometric assay using 5,5′-dithio-bis-(2-nitrobenzoic acid) (DTNB) also called Ellman's reagent. The HS-CoA released on the formation of acylcarnitine from carnitine (500 μM) and palmitoyl-CoA (80 μM) reduced DTNB (300 μM) forming 5-mercapto-2-nitrobenzoic acid which absorbed at 410 nm with a molar extinction coefficient of 13600 M^−1cm^−1. The assay buffer contained 120 mM KCl, 25 mM Tris, pH 7.4, 1 mM EDTA. This assay was used for the identification of CPT inhibitors, particularly/preferentially CPT2-selective inhibitors, versus the liver and muscle CPT1 isoforms.

hCPT2 = molecular target: T2, hCPT2 (Homo sapiens, UniProt P23786); assay: CPT2 inhibition, spectrophotometric DTNB (Ellman's reagent) assay; type: biochemical; settings: human CPT2 expressed in P. pastoris, cell extract; carnitine 500 μM, palmitoyl-CoA 80 μM, DTNB 300 μM
T2 construct: made in house; host or cells: Pichia pastoris strain X-33
T2 sequence (P23786 26-658): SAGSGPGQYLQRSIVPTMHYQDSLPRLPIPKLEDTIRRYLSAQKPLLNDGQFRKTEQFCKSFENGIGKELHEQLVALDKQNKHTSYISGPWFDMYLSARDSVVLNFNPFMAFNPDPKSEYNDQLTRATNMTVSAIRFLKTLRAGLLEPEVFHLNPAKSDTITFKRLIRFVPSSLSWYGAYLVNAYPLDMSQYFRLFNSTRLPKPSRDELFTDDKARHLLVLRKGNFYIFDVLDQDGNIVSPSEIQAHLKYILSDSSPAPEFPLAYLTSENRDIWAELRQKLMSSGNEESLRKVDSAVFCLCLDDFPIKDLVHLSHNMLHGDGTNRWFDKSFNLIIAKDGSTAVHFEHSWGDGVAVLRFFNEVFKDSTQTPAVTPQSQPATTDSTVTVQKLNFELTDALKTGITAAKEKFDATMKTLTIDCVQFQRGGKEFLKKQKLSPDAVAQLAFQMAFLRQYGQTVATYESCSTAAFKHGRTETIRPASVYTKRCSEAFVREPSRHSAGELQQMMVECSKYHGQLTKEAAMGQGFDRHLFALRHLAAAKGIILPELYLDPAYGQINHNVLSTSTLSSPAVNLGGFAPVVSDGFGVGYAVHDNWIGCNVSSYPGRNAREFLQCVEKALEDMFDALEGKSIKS
Method: as §1, §2, §3

IC50 (hL-CPT1) [nM] | IC50 (hCPT2) [nM] | Structure (SMILES)
1150 | 400 | COc1ccc(OCCCCCCCCC(=O)N[C@H](CC(=O)O)CN(C)C)cc1OC [Example 26, (R)-3-[9-(3,4-Dimethoxy-phenoxy)-nonanoylamino]-4-dimethylamino-butyric acid]
2190 | 170 | CN(C)C[C@@H](CC(=O)O)NC(=O)CCCCCCCCOc1ccc(C(F)(F)F)cc1 [Example 27, (R)-4-Dimethylamino-3-[9-(4-trifluoromethyl-phenoxy)-nonanoylamino]-butyric acid]
5440 | 15 | COc1ccc(OCCCCCCCCC(=O)N[C@H](CC(=O)O)CN(C)C)cc1 [Example 28, (R)-4-Dimethylamino-3-[9-(4-methoxy-phenoxy)-nonanoylamino]-butyric acid]
> 10000 | 160 | CN(C)C[C@@H](CC(=O)O)NC(=O)CCCCCCCCOc1cccc2ccccc12 [Example 29, (R)-4-Dimethylamino-3-[9-(naphthalen-1-yloxy)-nonanoylamino]-butyric acid]
2410 | 58 | CN(C)C[C@@H](CC(=O)O)NC(=O)CCCCCCCCOc1ccccc1 [Example 31, (R)-4-Dimethylamino-3-(9-phenoxy-nonanoylamino)-butyric acid]
7020 | 143 | CN(C)C[C@@H](CC(=O)O)NC(=O)CCCCCCCCCc1ccccc1 [Example 32, (R)-4-Dimethylamino-3-(10-phenyl-decanoylamino)-butyric acid]
> 10000 | 948 | CN(C)C[C@H](CC(=O)O)NC(=O)CCCCCCCCCc1ccccc1 [Example 33, (S)-4-Dimethylamino-3-(10-phenyl-decanoylamino)-butyric acid]
4320 | 122 | CN(C)C[C@@H](CC(=O)O)NC(=O)CCCCCCCCCc1ccc(F)cc1 [Example 34, (R)-4-Dimethylamino-3-[10-(4-fluoro-phenyl)-decanoylamino]-butyric acid]
3590 | 46 | CN(C)C[C@@H](CC(=O)O)NC(=O)CCCCCCCCCc1ccccc1F [Example 35, (R)-4-Dimethylamino-3-[10-(2-fluoro-phenyl)-decanoylamino]-butyric acid]
> 10000 | 317 | Cc1ccc(C)c(CCCCCCCCCC(=O)N[C@H](CC(=O)O)CN(C)C)c1 [Example 36, (R)-4-Dimethylamino-3-[10-(2,5-dimethyl-phenyl)-decanoylamino]-butyric acid]
> 10000 | 241 | Cc1cccc(C)c1CCCCCCCCCC(=O)N[C@H](CC(=O)O)CN(C)C [Example 37, (R)-4-Dimethylamino-3-[10-(2,6-dimethyl-phenyl)-decanoylamino]-butyric acid]
6910 | 17 | COc1ccc(CCCCCCCCCC(=O)N[C@H](CC(=O)O)CN(C)C)cc1 [Example 38, (R)-4-Dimethylamino-3-[10-(4-methoxy-phenyl)-decanoylamino]-butyric acid]
> 10000 | 3 | CN(C)C[C@@H](CC(=O)O)NC(=O)CCCCCCCCCc1cccc2ccccc12 [Example 39, (R)-4-Dimethylamino-3-(10-naphthalen-1-yl-decanoylamino)-butyric acid]
6550 | 44 | CN(C)C[C@@H](CC(=O)O)NC(=O)CCCCCCCCCc1ccc(C(F)(F)F)cc1 [Example 40, (R)-4-Dimethylamino-3-[10-(4-trifluoromethyl-phenyl)-decanoylamino]-butyric acid]
7720 | 98 | CN(C)C[C@@H](CC(=O)O)NC(=O)CCCCCCCCCc1cccc(F)c1 [Example 41, (R)-4-Dimethylamino-3-[10-(3-fluoro-phenyl)-decanoylamino]-butyric acid]
2340 | 22 | CN(C)C[C@@H](CC(=O)O)NC(=O)CCCCCCCCCc1cccc(F)c1F [Example 42, (R)-3-[10-(2,3-Difluoro-phenyl)-decanoylamino]-4-dimethylamino-butyric acid]
7310 | 118 | CN(C)C[C@@H](CC(=O)O)NC(=O)CCCCCCCCCc1ccsc1 [Example 43, (R)-4-Dimethylamino-3-(10-thiophen-3-yl-decanoylamino)-butyric acid]
> 10000 | 1060 | CN(C)C[C@@H](CC(=O)O)NC(=O)CCCCCCCCCc1cncs1 [Example 44, (R)-4-Dimethylamino-3-(10-thiazol-5-yl-decanoylamino)-butyric acid]
> 10000 | 2100 | CN(C)C[C@@H](CC(=O)O)NC(=O)CCCCCCCCCCc1ccccc1 [Example 50, (R)-4-Dimethylamino-3-(11-phenyl-undecanoylamino)-butyric acid]
1060 | 184 | CN(C)C[C@@H](CC(=O)O)NC(=O)CCCCCCCCCCCc1ccccc1 [Example 51, (R)-4-Dimethylamino-3-(12-phenyl-dodecanoylamino)-butyric acid]
2870 | 332 | CN(C)C[C@@H](CC(=O)O)NC(=O)NCCCCCCCCCc1ccccc1 [Example 63, (R)-4-Dimethylamino-3-[3-(9-phenyl-nonyl)-ureido]-butyric acid]
